pIC50, pKi: −log10 of the molar value. Read-outs that look alike come from different tables or passages of the source. Marks after values point to notes of the source that are not given here.
Legend:
(h)DAT [1] = target: T1, (h)DAT (Homo sapiens, UniProt Q01959); assay: competition binding with [125I]RTI-55 at (h)DAT stably expressed in HEK293 cells; conditions: mean ± standard error of three independent experiments
T1 construct: expressed in transfected cells

mice [2] = assay: locomotor activity, 8-h time course protocol; type: in vivo; conditions: for Locomotor Activity 8-Hour Time, min Period, max: time period of maximum effect; for locomotor stimulant activity across the 1-h and 8-h protocols, in words: 1-h and 8-h tests compared; for ED50 / Emax: Mus musculus; for ED50: read-out: Locomotor Activity 8-Hour ED50; for Emax: read-out: Locomotor Activity 8-Hour % Peak Cocaine, percent of cocaine's maximal effect, 30 min period of maximum stimulation; for Locomotor Activity 8-Hour Time, min Period, length: duration of locomotor activity
rats [3] = assay: cocaine discrimination (2-lever operant), i.p. administration; conditions: Rattus norvegicus, ip; for responders at 5 mg/kg / responders at 10 mg/kg / responders at 25 mg/kg / responders at 50 mg/kg / responders at 100 mg/kg: read-out: % cocaine lever responding; for ED50: read-out: Full Generalization ED50
(h)DAT [4] = target: T1, (h)DAT; assay: block of [3H]dopamine reuptake in HEK-(h)DAT cells; type: cell-based
mice [5] = assay: locomotor activity, 1-h observation protocol; type: in vivo; conditions: for Locomotor Activity 1-Hour ED50 / ED50: dose to produce 50% of the compound's maximal effect, 1-h; for Emax / ED50: Mus musculus; for Emax: 0.5 h, read-out: Locomotor Activity 1-Hour % Peak Cocaine
rats [6] = assay: cocaine discrimination time-course study, oral administration; conditions: Rattus norvegicus, po, 0.75 h
(h)NET [7] = target: T2, (h)NET (Homo sapiens, UniProt P23975); assay: competition binding with [125I]RTI-55 at (h)NET stably expressed in HEK293 cells; conditions: read-out: Binding, Ki NET; mean ± standard error of three independent experiments
T2 sequence (P23975 whole entry): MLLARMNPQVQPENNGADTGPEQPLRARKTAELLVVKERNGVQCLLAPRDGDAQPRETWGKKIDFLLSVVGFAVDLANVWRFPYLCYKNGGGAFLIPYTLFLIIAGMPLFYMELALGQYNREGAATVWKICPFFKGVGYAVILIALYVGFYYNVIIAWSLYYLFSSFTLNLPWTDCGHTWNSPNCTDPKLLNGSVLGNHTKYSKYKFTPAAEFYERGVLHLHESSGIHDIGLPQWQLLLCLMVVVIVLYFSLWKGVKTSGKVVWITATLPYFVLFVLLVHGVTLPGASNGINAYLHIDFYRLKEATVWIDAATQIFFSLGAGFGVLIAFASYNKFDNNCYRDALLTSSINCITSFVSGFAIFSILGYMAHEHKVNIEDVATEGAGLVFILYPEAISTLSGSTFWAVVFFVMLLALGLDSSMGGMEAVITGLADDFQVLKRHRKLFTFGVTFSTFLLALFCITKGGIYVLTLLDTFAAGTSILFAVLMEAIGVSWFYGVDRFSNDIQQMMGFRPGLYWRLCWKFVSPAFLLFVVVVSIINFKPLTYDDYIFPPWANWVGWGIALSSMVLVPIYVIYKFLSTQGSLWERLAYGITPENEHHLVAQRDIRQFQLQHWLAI

(h)NET [8] = target: T2, (h)NET; assay: block of [3H]norepinephrine reuptake in HEK-(h)NET cells; conditions: read-out: Uptake, IC50 [3H]NE; mean ± standard error of three independent experiments
[9] = mean ± standard error of three independent experiments, read-out: Uptake, IC50 [3H]DA
[10] = dose to produce 50% of the compound's maximal effect, 8-h

T1 sequence (Q01959 whole entry): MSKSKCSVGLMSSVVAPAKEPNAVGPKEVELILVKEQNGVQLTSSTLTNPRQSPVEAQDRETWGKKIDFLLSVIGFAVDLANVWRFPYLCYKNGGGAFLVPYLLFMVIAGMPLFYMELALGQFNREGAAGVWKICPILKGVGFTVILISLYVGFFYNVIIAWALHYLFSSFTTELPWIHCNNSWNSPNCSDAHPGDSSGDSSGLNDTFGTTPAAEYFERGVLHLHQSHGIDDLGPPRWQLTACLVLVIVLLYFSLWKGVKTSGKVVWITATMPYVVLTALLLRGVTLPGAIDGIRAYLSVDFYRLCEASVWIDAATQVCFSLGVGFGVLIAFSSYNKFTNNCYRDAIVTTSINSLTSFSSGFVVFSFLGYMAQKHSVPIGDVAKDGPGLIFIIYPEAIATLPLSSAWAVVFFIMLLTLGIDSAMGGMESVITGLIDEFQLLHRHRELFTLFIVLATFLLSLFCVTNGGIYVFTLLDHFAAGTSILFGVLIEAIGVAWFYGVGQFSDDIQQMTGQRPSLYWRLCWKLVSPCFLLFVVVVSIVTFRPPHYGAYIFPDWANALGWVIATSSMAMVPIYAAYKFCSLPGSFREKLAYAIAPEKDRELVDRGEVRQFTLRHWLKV

Row | Compound | pKi ((h)DAT [1]) | Locomotor Activity 8-Hour Time, min Period, max (mice [2]) [min] | responders at 5 mg/kg (rats [3]) [%] | responders at 10 mg/kg (rats [3]) [%] | responders at 25 mg/kg (rats [3]) [%] | responders at 50 mg/kg (rats [3]) [%] | pIC50 ((h)DAT [4]; [9]) | Locomotor Activity 1-Hour ED50 (mice [5]) | locomotor stimulant activity across the 1-h and 8-h protocols, in words (mice [2]) | Emax (mice [2]) [%] | Locomotor Activity 8-Hour Time, min Period, length (mice [2]) [min] | Emax (mice [5]) [%] | ED50 (mice [5]) [mg/kg] | other results
1 | CC(NC(C)(C)C)C(=O)c1ccc(Cl)cc1 (stereo not drawn) [Compound 2f, 2-(N-tert-Butylamino)-4′-chloropropiophenone] | 5.66 | 180 to 210 | 0 | 33 | 17 | 0 | 5.63 | NE^f |  |  |  |  |  | responders at 100 mg/kg (rats [3]): 34%
2 | Cc1ccc(C(=O)C(C)NC(C)(C)C)cc1 (stereo not drawn) [Compound 2h, 2-(N-tert-Butylamino)-4′-methylpropiophenone] |  | 30 to 60 | 0 | 0 | 17 | 67 |  |  | weak stimulants in both tests | 52 | 60 to 140 | 65 | 8.77 | ED50 (mice [2]; 8 h): 4.4 mg/kg; responders at 100 mg/kg (rats [3]): 10%; ED50 (rats [3]): 36.7 mg/kg
3 | CC(NC(C)(C)C)C(=O)c1ccc(F)c(F)c1 (stereo not drawn) [Compound 2i, 2-tert-Butylamino-3′,4′-difluoropropiophenone] |  |  |  | 2 | 17 | 47 |  |  |  |  |  | 58 | 54.6 | 
4 | CC(NC(C)(C)C)C(=O)c1cc(F)cc(F)c1 (stereo not drawn) [Compound 2m, 2-(tert-Butylamino)-3′,5′-difluoropropiophenone] | 5.25 | 0 to 30 |  | 17 | 50 | 83 | 5.25 |  | strong stimulants in both studies | 95 | 280 | 93 | 39.7 | ED50 (mice [2]; [10]): 33.7 mg/kg; ED50 (rats [3]): 17.9 mg/kg; ED50 (rats [6]): 43.6 mg/kg
5 | CC(NC(C)(C)C)C(=O)c1cc(Cl)cc(Cl)c1 (stereo not drawn) [Compound 2n, 2-(tert-Butylamino)-3′,5′-dichloropropiophenone] |  |  |  |  |  |  |  | NE^f |  |  |  |  |  | 
6 | CCCCCC(NC(C)(C)C)C(=O)c1cccc(Cl)c1 (stereo not drawn) [Compound 2r, 2-(N-tert-Butylamino)-3′-chloroheptanophenone] | 6.15 | 60 to 90 | 0 | 0 | 34 | 17 | 5.80 |  | weak stimulants in both tests | 78 | 280 to 460 | 66 | 5.82 | pKi ((h)NET [7]): 5.37; ED50 (mice [2]; [10]): 13.4 mg/kg; pIC50 ((h)NET [8]): 5.70
7 | CC(C)NC(C)C(=O)c1cccc(Cl)c1 (stereo not drawn) [Compound 2w, 2-(N-Isopropylamino)-3′-chloropropiophenone] | 5.40 | 20 to 50 |  |  |  |  |  |  | activity similar to cocaine in the 1-h protocol but weakened significantly in the 8-h time-course study | 65 | 50 to 160 | 84 |  | ED50 (mice [2]; 8 h): 7.4 mg/kg; pIC50 ((h)DAT [4]; [3H]DA, read-out: IC50 for DA uptake inhibition): 5.70; times less potent than bupropion as DA uptake inhibitor ((h)DAT [4]; relative to bupropion): 2 times
8 | COC(=O)[C@H]1[C@@H](OC(=O)c2ccccc2)C[C@@H]2CC[C@H]1N2C [cocaine, reference compound] |  | 0 to 30 |  |  |  |  |  | 8.5-11^e mg/kg |  | 100 | 40 to 100 | 100 | 8.5 to 11 | 

Reference: patent publication US10919841B2, “Monoamine reuptake inhibitors” (Research Triangle Institute, priority 2009, dated 2021)
